Data as given in PMC9706280 (Journal of Pesticide Science, 2022).

Biological target: succinate dehydrogenase (SDH) (Botrytis cinerea, UniProt A0A384J5E4+A0A384J8V8+A0A384JHJ5)
Assay: SDH assay kit on B. cinerea mitochondrial suspension, absorbance at […] nm
Assay type: biochemical
Settings: read-out: IC50 / μM

succinate dehydrogenase (SDH), sequence (A0A384J5E4 31-300): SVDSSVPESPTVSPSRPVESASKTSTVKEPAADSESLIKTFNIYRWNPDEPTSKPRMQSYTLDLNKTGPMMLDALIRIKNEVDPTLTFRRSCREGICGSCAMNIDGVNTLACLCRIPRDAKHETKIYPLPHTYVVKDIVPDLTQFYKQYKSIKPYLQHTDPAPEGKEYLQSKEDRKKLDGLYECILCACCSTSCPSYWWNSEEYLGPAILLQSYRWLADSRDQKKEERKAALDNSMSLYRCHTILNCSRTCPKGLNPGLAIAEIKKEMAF
succinate dehydrogenase (SDH), sequence (A0A384J8V8 41-189): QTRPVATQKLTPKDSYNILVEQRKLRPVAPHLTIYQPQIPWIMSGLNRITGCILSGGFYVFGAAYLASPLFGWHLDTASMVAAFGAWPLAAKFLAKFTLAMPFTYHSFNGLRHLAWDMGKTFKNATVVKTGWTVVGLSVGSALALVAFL
succinate dehydrogenase (SDH), sequence (A0A384JHJ5 55-192): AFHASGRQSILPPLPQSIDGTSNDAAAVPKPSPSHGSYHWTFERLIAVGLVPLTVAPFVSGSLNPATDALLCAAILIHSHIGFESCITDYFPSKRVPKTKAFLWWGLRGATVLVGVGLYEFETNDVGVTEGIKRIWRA
succinate dehydrogenase (SDH), sequence (A0A384K456 41-647 partner): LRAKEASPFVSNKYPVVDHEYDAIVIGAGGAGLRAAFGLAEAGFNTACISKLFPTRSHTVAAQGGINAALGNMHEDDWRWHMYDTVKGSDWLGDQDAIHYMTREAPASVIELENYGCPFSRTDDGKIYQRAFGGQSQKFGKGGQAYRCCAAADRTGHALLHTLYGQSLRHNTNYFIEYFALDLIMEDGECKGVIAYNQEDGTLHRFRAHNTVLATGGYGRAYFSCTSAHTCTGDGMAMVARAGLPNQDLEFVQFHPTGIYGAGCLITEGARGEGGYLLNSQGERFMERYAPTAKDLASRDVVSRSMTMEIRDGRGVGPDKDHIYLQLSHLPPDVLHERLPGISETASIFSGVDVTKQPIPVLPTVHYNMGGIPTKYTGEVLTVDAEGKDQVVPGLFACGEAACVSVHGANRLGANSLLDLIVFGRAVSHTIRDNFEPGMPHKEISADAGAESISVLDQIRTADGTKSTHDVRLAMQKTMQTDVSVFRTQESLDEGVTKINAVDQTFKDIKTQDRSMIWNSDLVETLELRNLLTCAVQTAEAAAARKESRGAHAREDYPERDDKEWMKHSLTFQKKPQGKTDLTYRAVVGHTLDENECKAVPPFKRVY

IC50 [µM] | Structure (SMILES)
17.3 | O=C(Nc1ccccc1Nc1ccccc1)c1ccc(Cl)nc1 [3f, 6-chloro-N-(2-(phenylamino)phenyl)nicotinamide]
14.4 | Cc1nc(C(F)(F)F)c(C(=O)Nc2c(Br)cc(OC(F)(F)F)cc2Br)s1 [thifluzamide]
